Experimental data reported in US10968186B2, “Ascochlorin derivative and use thereof as AMPK activator” (priority 2016, dated 2021).
≈ marks a conversion by molar mass, not a printed value. Like-named read-outs stand apart in the source and are kept apart here.

Tests used:
[1] = Solubility in pH4.0 and pH7.4 phosphate buffer solution; format: physicochemical; conditions: 2 hr incubation, 25° C.
Protocol: 1) Preparation of Stock Solutions
Diclofenac was used as positive control in the assay.
2) Procedures for Solubility Determination
This study was performed in duplicate. […] The filtered samples were diluted with methanol.
3) Samples Analyzed by LC-MS/MS

[2] = Stability in acidic pH phosphate buffer solution (hydrolysis to MAC); format: physicochemical; conditions: room temperature
Source text: Therefore, the Schiff base derivatives of MAC have the same problem in the metabolic stability as the parent compound, MAC.

[3] = Stability against human liver microsomes; format: in vitro ADME; conditions: 2 μM compound
Protocol: (§1) Determination of Stability Against Mouse and Human Mirosomes
(§2) Pooled human liver microsomes (Cat. 452161; Lot. 23418) were purchased from Corning and pooled male mouse liver microsomes (Cat. M1000; Lot. 1210302) were purchased from Xenotech. Microsomes were stored at −80° C. prior to use. 40 μL of ultra-pure H2O was used instead of NADPH solution in the negative control. The negative control was used to exclude the misleading factor that was resulted from instability of chemical itself. Samples with NADPH were prepared in duplicate. Negative controls were prepared in singlet.
(§3) The reaction was started with the addition of 4 μL of 200 μM compound solution to each master solution to get the final concentration of 2 μM. Verapamil was used as positive control in the assay. Aliquots of 50 μL were taken from the reaction solution at 0, 15, 30, 45 and 60 min. The reaction was stopped by addition of 4 volumes of cold acetonitrile with IS (200 nM imipramine, 200 nM labetalol and 2 μM ketoprofen). Samples were centrifuged at 3,220 g for 40 minutes. Aliquot of […] of the supernatant was mixed with 90 μL of ultra-pure H2O and then was used for LC-MS/MS analysis. Results are shown in Table 3 by indicating remaining % of the test compound after 60 minutes incubation with liver microsomes from human and mouse in the presence of NADPH.

[4] = test system: MDA-MB-231; assay: Anti-proliferative activity, CellTiterGlo assay, MDA-MB-231; format: cell-based; conditions: Homo sapiens; MDA-MB-231, 96 hrs incubation; read-out: Antiproliferative activities IC50, MDA-MB-231
Protocol: (§4) The anti-proliferative activities of the compounds against 6 human cancer cell lines were determined by CellTiterGlo assay kit. All cells were obtained from ATCC and cultured as recommended by the vendor. Cells were assayed in exponential growth phase. Sample solution was prepared by 3-fold serial dilution from 30 mM stock for 10 doses in DMSO. Antiproliferative activities were measured by CellTiterGlo assay kit according to the protocol after cells were incubated for 96 hrs in a 37° C., 5% CO2 incubator.
(§5) On the 4th day of incubation, i) 15 μl reagent (CelltiterGlo assay kit) was added per well and plate was shaken (avoiding light) for 2 mins on a plate shaker, ii) the plate was kept (avoiding light) in room temperature for 30 min, and iii) the luminescence value was recorded by Multiplate reader.

[5] = test system: U87-MG; assay: Anti-proliferative activity, CellTiterGlo assay, U87-MG; format: cell-based; conditions: Homo sapiens, U-87 MG, 96 hrs incubation, read-out: Antiproliferative activities IC50, U87-MG
Protocol: as §4, §5

[6] = test system: BxPC-3; assay: Anti-proliferative activity, CellTiterGlo assay, BxPC-3; format: cell-based; conditions: Homo sapiens; BxPC-3, 96 hrs incubation; read-out: Antiproliferative activities IC50, BxPC-3
Protocol: as §4, §5

[7] = test system: HT29; assay: Anti-proliferative activity, CellTiterGlo assay, HT29; format: cell-based; conditions: Homo sapiens, HT-29; HT29, 96 hrs incubation; read-out: Antiproliferative activities IC50, HT29
Protocol: as §4, §5

[8] = test system: A549; assay: Anti-proliferative activity, CellTiterGlo assay, A549; format: cell-based; conditions: Homo sapiens; A549, 96 hrs incubation; read-out: Antiproliferative activities IC50, A549
Protocol: as §4, §5

[9] = test system: LNCaP; assay: Anti-proliferative activity, CellTiterGlo assay, LNCaP; format: cell-based; conditions: Homo sapiens, 96 hrs incubation, read-out: Antiproliferative activities IC50, LNCaP
Protocol: as §4, §5

[10] = test system: HFD-STZ C57BL/6J mice model; assay: In vivo efficacy in HFD-STZ C57BL/6J mice model
Protocol: In Vivo Efficacy in HFD-STZ C57BL/6J Mice Model
Diet induced obesity model establishment:
C57BL/6J mice were fed with high fat diet (Research Diets, D12492) for 64 days, and streptozotocin (10 mg/kg) was given orally on day 22 and day 29. Compound treatment was done from day 36 to day 63.
Based on the animal's body weight and oral glucose tolerance test (OGTT) on week 5, mice were randomly assigned to respective groups using a computer-generated randomization procedure.
Blood glucose level was measured with the blood from tail vein every 2nd week by using Accu-Chek Aviva System.
Blood Chemistry Analysis:
Blood samples were obtained from collection on Day 49 and 65, the samples were immediately processed by centrifugation at 4° C., 4,000 g for 15 minutes, and then they were transferred into a new test tube. Lipid profile and full panel blood bio-chemistry parameters were measured by using TOSHIBA TBA-40FR automated biochemical analyzer.

[11] = Stability against mouse liver microsomes; format: in vitro ADME; conditions: mouse LM, 2 μM compound, 60 min, NADPH
Protocol: as §1, §2, §3

[12] = test system: Hep3B human liver cancer xenograft; assay: Antitumor activity in Hep3B human liver cancer xenograft model; format: in vivo, BALB/c nude mice; conditions: po 200 mg/kg once daily 5 days then 100 mg/kg 10 days; alone or in combination of sorafenib (80 mg/kg)
Protocol: Antitumor Activity of Compound 5 (po, qd×14) in Hep3B Human Liver Cancer Xenograft Model in BALB/c Nude Mice: Single Agent and Combination With Sorafenib
Each mouse was inoculated subcutaneously on the right flank with Hep3B tumor cells (5×106) in 0.1 ml of MEM-Matrigel mixture (1:1 ratio) for tumor development. The treatment started when the mean tumor size reached approximately 137 mm^3. Mice were then randomized into groups.
Compound 5 was dissolved in the vehicle (95% v/v PEG400+5% Tween 80) and orally administered to the tumor-bearing mice with 200 mg/kg, once daily for the first 5 days, followed by treatment with 100 mg/kg for 10 days.

[13] = phosphate buffer (PBS), aqueous buffer, kinetic from dmso stock, pH 4.0 phosphate buffer solution, read-out: Solubility, pH 4.0 PBS
[14] = phosphate buffer (PBS), aqueous buffer, kinetic from dmso stock, pH 7.4 phosphate buffer solution, read-out: Solubility, pH 7.4 PBS
[15] = OGTT assay, versus group treated with vehicle
[16] = once a day oral treatment for 28 days at 0.25 to 16 mg/kg

Row | SMILES | Solubility, pH 4.0 PBS ([1]; pH 4.0 phosphate buffer solution) | solubility at 2 h ([1]; pH 7.4 phosphate buffer solution, read-out: Solubility, pH 7.4 PBS) [µM] | hydrolysis to MAC at pH 4.0 phosphate buffer solution [2] | Liver microsome stability remaining % after 60 min incubation with NADPH, human LM [3] [%] | IC50 [4] [µM] | solubility at 2 h [1, 13] [µM] | solubility at 2 h [1, 14] [µM] | IC50 [5] [µM] | IC50 [6] [µM] | IC50 [7] [µM] | IC50 [8] [µM] | IC50 [9] [µM] | OGTT: blood glucose level after 2 hours of glucose administration, lower than control group [10, 15] [%] | OGTT: glucose AUC lower than control group [10, 15] [%] | decrease of HbA1C level [10, 16] [%] | decrease of blood glucose level [10, 16] [%] | Liver microsome stability remaining % after 60 min incubation with NADPH, mouse LM [11] [%] | effect to reduce the proliferation of the liver cancer cells (tumor size) [12] | melting point [°C]
1 | COc1c(Cl)c(C)c(C=NCC(N)=O)c(O)c1C/C=C(C)/C=C/[C@@]1(C)[C@H](C)CCC(=O)[C@@H]1C [compound #13 in WO2004/074236, reference compound] | converted to MAC | 0.02 (≈ 0.0095 µg/mL) | almost instantly hydrolyzed to MAC | – | – | – | – | – | – | – | – | – | – | – | – | – | – | – | –
2 | CO/N=C/c1c(C)c(Cl)c(OC)c(C/C=C(C)/C=C/[C@@]2(C)[C@H](C)CC/C(=N\OCC(=O)O)[C@@H]2C)c1O [Compound 19, 2-([[(1E,2R,3R,4R)-3-[(1E,3E)-5-[3-chloro-6-hydroxy-2-methoxy-5-[(1E)-(methoxyimino)methyl]-4-methylphenyl]-3-methylpenta-1,3-dien-1-yl]-2,3,4-trimethylcyclohexylidene]amino]oxy)acetic Acid] | – | – | – | 94 | 47.4 | 148 (≈ 77.1 µg/mL) | 23.7 (≈ 12.3 µg/mL) | 20.4 | 17 | 22.5 | 22.3 | 14.6 | 30 | 25 | −31 | −68 | 89 | – | –
3 | CO/N=C/c1c(C)c(Cl)c(OC)c(C/C=C(C)/C=C/[C@@]2(C)[C@H](C)CC/C(=N\OCCN3CCN(C)CC3)[C@@H]2C)c1O [Compound 17, 4-chloro-3-methoxy-6-[(1E)-(methoxyimino)methyl]-5-methyl-2-[(2E,4E)-3-methyl-5-[(1R,2R,3E,6R)-1,2,6-trimethyl-3-[[2-(4-methylpiperazin-1-yl)ethoxy]imino]cyclohexyl]penta-2,4-dien-1-yl]phenol] | – | – | – | 76 | 5 | 39 (≈ 23 µg/mL) | 0.04 (≈ 0.0236 µg/mL) | 4.5 | 1.7 | 5.2 | 6.8 | 4.1 | – | – | – | – | 55 | – | –
4 | CO/N=C/c1c(C)c(Cl)c(OC)c(C/C=C(C)/C=C/[C@@]2(C)[C@H](C)CC/C(=N\OCCN(C)C)[C@@H]2C)c1O [Compound 15, 4-chloro-2-[(2E,4E)-5-[(1R,2R,3E,6R)-3-[[2-(dimethylamino)ethoxy]imino]-1,2,6-trimethylcyclohexyl]-3-methylpenta-2,4-dien-1-yl]-3-methoxy-6-[(1E)-(methoxyimino)methyl]-5-methylphenol] | – | – | – | 88 | 4.8 | 54 (≈ 28.8 µg/mL) | 0.29 (≈ 0.155 µg/mL) | 4.4 | 1.7 | 7 | 6.7 | 4.2 | – | – | – | – | 79 | – | –
5 | CCNC1CC[C@@H](C)[C@](C)(/C=C/C(C)=C/Cc2c(O)c(/C=N/OC)c(C)c(Cl)c2OC)[C@H]1C (stereo partly drawn) [Compound 21, 4-chloro-2-[(2E,4E)-5-[(1R,2R,6R)-3-(ethylamino)-1,2,6-trimethylcyclohexyl]-3-methylpenta-2,4-dien-1-yl]-3-methoxy-6-[(1E)-(methoxyimino)methyl]-5-methylphenol] | – | – | – | 100 | 4.3 | 168 (≈ 80.2 µg/mL) | 0.003 (≈ 0.00143 µg/mL) | 3.1 | 1.7 | 5 | 5.3 | 3.8 | – | – | – | – | 80 | – | –
6 | CC(/C=C/[C@@]1(C)[C@H](C)CC/C(=N\O)[C@@H]1C)=C\Cc1c(O)c(C=O)c(C)c(Cl)c1OCF [Compound 5, 3-chloro-4-(fluoromethoxy)-6-hydroxy-5-[(2E,4E)-5-[(1R,2R,3E,6R)-3-(hydroxyimino)-1,2,6-trimethylcyclohexyl]-3-methylpenta-2,4-dien-1-yl]-2-methylbenzaldehyde] | – | – | – | 86 | 2.6 | – | – | 5.5 | 3.2 | 2.8 | 2.7 | 1.8 | – | – | – | – | 88 | significant effect | –
7 | COc1c(Cl)c(C)c(C=O)c(O)c1C/C=C(C)/C=C/[C@@]1(C)[C@H](C)CC/C(=N\O)[C@@H]1C [Compound 2, 3-chloro-6-hydroxy-5-[(2E,4E)-5-[(1R,2R,3E,6R)-3-(hydroxyimino)-1,2,6-trimethylcyclohexyl]-3-methylpenta-2,4-dien-1-yl]-4-methoxy-2-methylbenzaldehyde] | – | – | – | – | – | – | – | – | – | – | – | – | – | – | – | – | – | – | 158 to 160
8 | COc1c(Cl)c(C)c(C=O)c(O)c1C/C=C(C)/C=C/[C@@]1(C)[C@H](C)CC[C@](C)(O)[C@@H]1C [Compound 1, 3-chloro-6-hydroxy-5-[(2E,4E)-5-[(1R,2R,3S,6R)-3-hydroxy-1,2,3,6-tetramethylcyclohexyl]-3-methylpenta-2,4-dien-1-yl]-4-methoxy-2-methylbenzaldehyde] | – | – | – | – | – | – | – | – | – | – | – | – | – | – | – | – | – | – | 42 to 43
